pEC50: −log10 of the molar value.

The values that follow come from patent US20120214847A1, “2-[1-PHENYL-5-HYDROXY-4a-SUBSTITUTED-HEXAHYDROCYCLOPENTA[F]INDAZOL-5-YL]ETHYL PHENYL DERIVATIVES AS GLUCOCORTICOID RECEPTOR LIGANDS” (Merck Sharp & Dohme Corp., priority 2009, published 2012).

The experiment concerns the target T1, human GR (Homo sapiens, UniProt P04150).
T1 construct: naturally expresses the human GR; endogenous in cells
T1 sequence (P04150 1-777): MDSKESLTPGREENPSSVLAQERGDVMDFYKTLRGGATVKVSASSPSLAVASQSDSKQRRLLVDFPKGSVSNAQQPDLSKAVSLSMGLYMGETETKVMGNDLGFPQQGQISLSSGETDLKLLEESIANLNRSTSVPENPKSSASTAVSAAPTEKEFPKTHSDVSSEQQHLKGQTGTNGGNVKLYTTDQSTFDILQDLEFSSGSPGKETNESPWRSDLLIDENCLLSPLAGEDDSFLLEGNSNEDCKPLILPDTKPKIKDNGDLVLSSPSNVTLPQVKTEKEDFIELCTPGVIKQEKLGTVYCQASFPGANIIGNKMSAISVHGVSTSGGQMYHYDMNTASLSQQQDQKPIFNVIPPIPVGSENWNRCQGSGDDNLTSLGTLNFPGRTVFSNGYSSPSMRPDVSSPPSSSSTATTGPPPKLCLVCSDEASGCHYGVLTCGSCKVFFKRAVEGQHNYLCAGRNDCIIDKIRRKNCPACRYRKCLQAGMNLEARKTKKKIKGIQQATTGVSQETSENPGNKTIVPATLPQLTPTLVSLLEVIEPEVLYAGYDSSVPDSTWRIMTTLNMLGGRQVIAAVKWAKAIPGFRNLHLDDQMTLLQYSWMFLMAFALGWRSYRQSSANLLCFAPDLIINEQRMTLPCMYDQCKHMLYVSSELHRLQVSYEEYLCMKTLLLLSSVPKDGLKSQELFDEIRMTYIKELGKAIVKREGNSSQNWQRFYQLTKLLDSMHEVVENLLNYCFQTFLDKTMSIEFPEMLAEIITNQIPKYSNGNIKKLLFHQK
The experiment can be described thus: Transrepression assay (GITAR), TNFα-β-lactamase reporter in U937 cells. It is filed as cell-based. Particulars: for pEC50 / Transrepression U937 Cells GITAR Emax (%): U937 cells; for pEC50: IP = inflection point; for Emax: U-937, U937 cells; for Emax / Transrepression U937 Cells GITAR Emax (%): activity repressed by 100 nM dexamethasone alone set as 100%. The text has this:
Transrepression Assay (GITAR)
This assay assesses the ability of test compounds to control transcription from the TNFα-β-lactamase reporter gene in U937 cells, a human myelomonocytic leukemia cell line that naturally expresses the human GR. The assay measures compound dependent-repression of the TNFa promoter linked to a reporter gene.
The human U937 cells that had been stablely transfected with the TNF-a promoter driving ˜-lactamase are used for this assay. U937 cells contain an endogenous glucocorticoid receptor (GR). Cells are maintained in RPMI 1640 Growth medium (GibcoCat#11875-093) containing 25 mM HEPES, 10% FBS, 2 mM L-Glutamine, 1 mM Sodium pyruvate, 25 μg/ml Gentamicin (Gibed Cat#1571 0-064), 1:1000 2-Mercaptoethanol (Gibco Cat#21985-023) and 0.8 mg/ml G418 (Gibco Cat#10131-027). The density of the cells in the flask needs to be about 1×10^6-3×10^6/ml at the time of harvest. Usually, the cells are split to 1.2˜1.4×10^5/ml (1:10) 3 days prior to the assay. 50,000 cells/well are plated in 96 well black-walled plates the day of assay. Test compounds are added 10 J.lL/well, and cells are incubated at 37° C. for 30˜45 min. For assaying compounds, first dilute 1:10 in DMSO to make 1 mM, then further dilute 1:100 in medium to make 10× stock prior to adding to the cells. Add 50 ng/ml PMA (Sigma, cat#P8139) 10 μL/well to a final concentration 5 ng/ml, and 1 μg/ml LPS (Sigma, cat#L4130) 10 μL/well to a final concentration 100 ng/ml. Incubate cells at 370 C overnight for −18 hr. PMA is stored frozen as […] in DMSO. Dilute 1:10 in DMSO for a working stock of 10 μg/ml and store at −20° C. For assaying, dilute the 10 μg/ml working stock 1:200 in medium to make a 10× solution (50 ng/ml). Store frozen LPS at 1 mg/ml in PBS, dilute 1:1000 in medium to make 10×μg/ml) for the assay. Add 6× loading buffer (CCF2-AM) 20 μL/well, and incubate at room temperature for 70-90 min. […] The activity repressed by 100 nM dexamethasone alone is set as 100% activity.

As a reminder, the pEC50 is −log10 of the EC50, conventionally taken in molar units. In general, Emax refers to the size of the effect at its maximum, as opposed to the concentration needed. As for `OC(C[C@]1(O)CCC2=Cc3c(cnn3-c3ccc(F)cc3)C[C@@]21C1CC1)c1ccccn1` (stereo partly drawn) [Example 78, (4aR,5R)-4a-Cyclopropyl-1-(4-fluorophenyl)-5-[2-hydroxy-2-(pyridin-2-yl)ethyl]-1,4,4a,5,6,7-hexahydrocyclopenta[f]indazol-5-ol], the pEC50 is 6.67 and the Emax was found to be 49%.
For `NS(=O)(=O)c1ccccc1CC[C@]1(O)CCC2=Cc3c(cnn3-c3cccnc3)C[C@@]21C1CC1` [Example 24, 2-{2-[(4aR,5R)-4a-Cyclopropyl-5-hydroxy-1-(pyridin-3-yl)-1,4,4a,5,6,7-hexahydrocyclopenta[f]indazol-5-yl]ethyl}benzenesulfonamide], in that order: 8.15 and 83%.
The like results for `CC[C@]12Cc3cnn(-c4ccc(F)cc4)c3C=C1CC[C@@]2(O)CCc1ccccc1C(O)C(N)=O` (stereo partly drawn) [Example 25, 2-(2-{2-[(4aS,5R)-4a-Ethyl-1-(4-fluorophenyl)-5-hydroxy-1,4,4a,5,6,7-hexahydrocyclopenta[f]indazol-5-yl]ethyl}phenyl)-2-hydroxyacetamide] were, in that order, 6.93 and 74%.
As for `CC[C@]12Cc3cnn(-c4ccccc4)c3C=C1CC[C@@]2(O)CC(O)c1ccccn1` (single isomer, unassigned) [Example 67b], the pEC50 is 6.56 and the “Transrepression U937 Cells GITAR Emax (%)” value turned out to be 44%.
Consider `CC[C@]12Cc3cnn(-c4ccc(F)cc4)c3C=C1CC[C@@]2(O)CCc1cc(C)ccn1` [Example 33, (4aS,5R)-4a-Ethyl-1-(4-fluorophenyl)-5-[2-(4-methylpyridin-2-yl)ethyl]-1,4,4a,5,6,7-hexahydrocyclopenta[f]indazol-5-ol], for which the pEC50 is 7.08 and the Emax was found to be 82%.
For `CC[C@]12Cc3cnn(-c4ccc(F)cc4)c3C=C1CC[C@@]2(O)CCc1cccc(F)c1CC(N)=O` [Example 60, 2-(2-{2-[(4aS,5R)-4a-Ethyl-1-(4-fluorophenyl)-5-hydroxy-1,4,4a,5,6,7-hexahydrocyclopenta[f]indazol-5-yl]ethyl}-6-fluorophenyl)acetamide], in that order: 7.62 and 84%.
For `CC[C@]12Cc3cnn(-c4ccc(F)cc4)c3C=C1CC[C@@]2(O)CCc1cc(F)ccn1` [Example 18, (4aS,5R)-4a-Ethyl-1-(4-fluorophenyl)-5-[2-(4-fluoropyridin-2-yl)ethyl]-1,4,4a,5,6,7-hexahydrocyclopenta[f]indazol-5-ol], in that order: 7.13 and 80%.
The like results for `O=C(NCCO)c1ccccc1CC[C@]1(O)CCC2=Cc3c(cnn3-c3ccc(F)cc3)C[C@@]21C1CC1` [Example 50, 2-{2-[(4aR,5R)-4a-Cyclopropyl-1-(4-fluorophenyl)-5-hydroxy-1,4,4a,5,6,7-hexahydrocyclopenta[f]indazol-5-yl]ethyl}-N-(2-hydroxyethyl)benzamide] were, in that order, 8.05 and 88%.
`COc1ccnc(CC[C@]2(O)CCC3=Cc4c(cnn4-c4ccc(F)cc4)C[C@@]32C2CC2)c1C(N)=O` [Example 54, 2-{2-[(4aR,5R)-4a-Cyclopropyl-1-(4-fluorophenyl)-5-hydroxy-1,4,4a,5,6,7-hexahydrocyclopenta[f]indazol-5-yl]ethyl}-4-methoxypyridine-3-carboxamide] had a negative logarithm of the EC50 (pEC50) of 7.32 and an Emax of 77%.
The like results for `CC[C@]12Cc3cnn(-c4ccc(F)cc4)c3C=C1CC[C@@]2(O)CC1OC(=O)c2ccccc21` (stereo partly drawn) [Example 71, 3-{[(4aS,5R)-4a-Ethyl-1-(4-fluorophenyl)-5-hydroxy-1,4,4a,5,6,7-hexahydrocyclopenta[f]indazol-5-yl]methyl}-2-benzofuran-1(3H)-one] were, in that order, 7.19 and 74%.
`NC(=O)CNC(=O)c1cc(F)cnc1CC[C@]1(O)CCC2=Cc3c(cnn3-c3ccc(F)cc3)C[C@@]21C1CC1` [Example 44, N-(2-Amino-2-oxoethyl)-2-{2-[(4aR,5R)-4a-cyclopropyl-1-(4-fluorophenyl)-5-hydroxy-1,4,4a,5,6,7-hexahydrocyclopenta[f]indazol-5-yl]ethyl}-5-fluoropyridine-3-carboxamide] showed a pEC50 of 7.42 and an Emax of 86%.
As for `CC[C@]12Cc3cnn(-c4ccc(F)cc4)c3C=C1CC[C@@]2(O)CC(O)c1cncc(F)c1` (stereo partly drawn) [Example 73, (4aS,5R)-4a-Ethyl-1-(4-fluorophenyl)-5-[2-(5-fluoropyridin-3-yl)-2-hydroxyethyl]-1,4,4a,5,6,7-hexahydrocyclopenta[f]indazol-5-ol], the pEC50 was 6.70 and the maximal effect (Emax) is 71%.
`NC(=O)c1ccccc1CC[C@]1(O)CCC2=Cc3c(cnn3-c3cccc(F)c3)C[C@@]21C1CC1` [Example 7, 2-{2-[(4aR,5R)-4a-Cyclopropyl-1-(3-fluorophenyl)-5-hydroxy-1,4,4a,5,6,7-hexahydrocyclopenta[f]indazol-5-yl]ethyl}benzamide] had a pEC50 of 6.84 and an Emax of 67%.
In turn, `NC(=O)CNC(=O)c1ccccc1CC[C@]1(O)CCC2=Cc3c(cnn3-c3ccc(F)cc3)C[C@@]21C1CC1` [Example 47, N-(2-Amino-2-oxoethyl)-2-{2-[(4aR,5R)-4a-cyclopropyl-1-(4-fluorophenyl)-5-hydroxy-1,4,4a,5,6,7-hexahydrocyclopenta[f]indazol-5-yl]ethyl}benzamide] showed a negative-log EC50 (pEC50) of 8.05 and an Emax of 83%.
The like results for `CC[C@]12Cc3cnn(-c4ccc(F)cc4)c3C=C1CC[C@@]2(O)CCc1ncc(F)cc1C(N)=O` [Example 53, 2-{2-[(4aS,5R)-4a-Ethyl-1-(4-fluorophenyl)-5-hydroxy-1,4,4a,5,6,7-hexahydrocyclopenta[f]indazol-5-yl]ethyl}-5-fluoropyridine-3-carboxamide] were, in that order, 7.12 and 86%.
The like results for `NC(=O)c1cc(F)ccc1CC[C@]1(O)CCC2=Cc3c(cnn3-c3ccc(F)cc3)C[C@@]21C1CC1` [Example 39, 2-{2-[(4aR,5R)-4a-Cyclopropyl-1-(4-fluorophenyl)-5-hydroxy-1,4,4a,5,6,7-hexahydrocyclopenta[f]indazol-5-yl]ethyl}-5-fluorobenzamide] were, in that order, 7.08 and 71%.
On to `CC[C@]12Cc3cnn(-c4ccccc4)c3C=C1CC[C@@]2(O)CCc1cccc(F)c1C#N` [Example 15, 2-{2-[(4aS,5R)-4a-Ethyl-5-hydroxy-1-phenyl-1,4,4a,5,6,7-hexahydrocyclopenta[f]indazol-5-yl]ethyl}-6-fluorobenzonitrile], for which the pEC50 is 6.94 and the Emax is 89%.
The like results for `CC[C@]12Cc3cnn(-c4cccnc4)c3C=C1CC[C@@]2(O)CCc1cccc(F)c1C(N)=O` [Example 14, 2-{2-[(4aS,5R)-4a-Ethyl-5-hydroxy-1-(pyridin-3-yl)-1,4,4a,5,6,7-hexahydrocyclopenta[f]indazol-5-yl]ethyl}-6-fluorobenzamide] were, in that order, 7.37 and 88%.
Turning to `CC[C@]12Cc3cnn(-c4ccc(F)cc4)c3C=C1CC[C@@]2(O)CCc1ccccc1C(O)C(N)=O` (stereo partly drawn) [Example 26, 2-(2-{2-[(4aS,5R)-4a-Ethyl-1-(4-fluorophenyl)-5-hydroxy-1,4,4a,5,6,7-hexahydrocyclopenta[f]indazol-5-yl]ethyl}phenyl)-2-hydroxyacetamide], the pEC50 was 7.29 and the “Transrepression U937 Cells GITAR Emax (%)” value stood at 86%.
